Values of other authors, collected in US10194658B2, “High concentration low VOC liquid gibberellin” (Stoller Enterprises, Inc., priority 2015, dated 2019).

Conditions: at 20° C.

vapor pressure: 0.08 mm Hg
Compound: CC(O)CO (stereo not shown) [propylene glycol, propane-1,2-diol]
